{"source": "patent US10907187B2", "about": "“Fungal strains and methods of use” (DANISCO US INC., priority 2015, dated 2021)", "format_in_all_cases": "cell-based, Trichoderma reesei", "key": {"[1]": {"test_system": "T. reesei strain RLP37 NikM743T", "test": "Liquid medium fungicide screen, conidiospore germination in YEG", "details": "all concentrations tested (11.25, 22.5, 45 or 90 μM), overnight at 28° C.", "method": "(§1) For use in liquid medium fungicide screens, conidiospores from T. reesei strains RLP37 and RLP37 NikM743T were harvested and diluted to a concentration of 10,000/ml. Equal numbers of spores were inoculated into liquid YEG medium (5 g/L yeast extract, 22 g/1 glucose. H2O) containing 0, 11.25, 22.5, 45 or 90 μM iprodione or fludioxonil and allowed to germinate overnight at 28° C. […] Furthermore, sensitivity of RLP37 and resistance of RLP37 NikM743T persisted when inoculation culture was scaled up to […]."}, "[2]": {"test_system": "T. reesei strain RLP37", "test": "Liquid medium fungicide screen, conidiospore germination in YEG", "details": "for germination and hyphal growth of conidiospores: 11.25 μM fungicide, overnight at 28° C., 10,000 spores/ml", "method": "as §1"}, "[3]": {"test_system": "T. reesei strain RLP37 Nik^M743T", "test": "Agar (solid) medium fungicide screen, colony growth on Vogel's minimal medium with glucose", "details": "11.25, 22.5, 45 or 90 μM, agar plates, 3 days at 32° C.", "method": "(§2) For use in agar (solid) medium fungicide screens or selections, conidiospores from T. reesei strains RLP37 and RLP37 Nik^M743T were harvested and diluted to a concentration such that a known number of spores were plated per 10 cm plate containing nutrient agar Vogel's minimal medium with glucose (Vogel, Microbial Genet. Bull. 13:42-43 (1956); Vogel, Am. Nat. 98:435-446 (1964)). Equal numbers of spores for each strain were spread onto the surface of nutrient agar plates containing 0, 11.25, 22.5, 45 or 90 μM iprodione and allowed to grow for 3 days at 32° C. […] This mixed population of spores was spread onto Vogel's minimal medium agar containing 45 μM iprodione and allowed to grow for 3 days at 32° C. Colonies were counted and evaluated for presence of the nik1^M743T mutation by PCR and sequencing (Sequetech, Mountain View, Calif., USA), using the following primers: […]"}, "[4]": {"test_system": "T. reesei strain RLP37", "test": "Agar (solid) medium fungicide screen, colony growth on Vogel's minimal medium with glucose", "details": "agar plates, 3 days at 32° C.", "method": "as §2"}}, "note": "Where two headings read alike, the source gives them in different places.", "data": [{"smiles": "CC(C)NC(=O)N1CC(=O)N(c2cc(Cl)cc(Cl)c2)C1=O", "note": "[iprodione]", "values": [{"measurement": "germination and hyphal growth of conidiospores", "setting": "[1]", "result": "germinated and produced elongated hyphae"}, {"measurement": "germination and growth of conidiospores", "setting": "[2]", "result": "complete inhibition of germination and growth"}, {"measurement": "germination and hyphal growth of conidiospores", "setting": "[2]; liquid YEG medium", "result": "clear inhibition of hyphal growth"}, {"measurement": "colony growth", "setting": "[3]", "result": "grew similarly to colonies growing on nutrient agar plates without iprodione"}, {"measurement": "colony growth", "setting": "[4]; 45 μM and above", "result": "failed to grow at all"}, {"measurement": "colony growth", "setting": "[4]; 11.25 and 22.5 μM", "result": "failed to grow to any larger than the size of the tip of a pin"}]}, {"smiles": "N#Cc1c[nH]cc1-c1cccc2c1OC(F)(F)O2", "note": "[fludioxonil]", "values": [{"measurement": "germination and hyphal growth of conidiospores", "setting": "[1]", "result": "germinated and produced elongated hyphae"}, {"measurement": "germination and hyphal growth of conidiospores", "setting": "[2]; liquid YEG medium", "result": "clear inhibition of hyphal growth"}, {"measurement": "germination and growth of conidiospores", "setting": "[2]; concentrations above 11.25 μM (22.5, 45 or 90 μM), liquid YEG medium, overnight at 28° C.", "result": "complete inhibition of germination and growth"}]}]}
